Earlier results in patent publication US11389471B2, “Systems and methods to improve organ or tissue function and organ or tissue transplant longevity” (Proterris Inc., priority 2014, dated 2022).

Settings: CO alveolar concentration of 25 ppm; CFK equation

Question: With `[C-]#[O+]` [CO, carbon monoxide] as the compound, how does the “time to reach an equilibration point” value read?
Answer: Its value is “about 20 hours”.
